The record followed here is patent US20250129070A1, “BIFUNCTIONAL ANDROGEN RECEPTOR COMPOUNDS” (priority 2023, published 2025).

Where only a bound is given, the exact number is not on record here.

In one experiment the test system is VCaP cells. The experiment in a line: VCaP growth inhibition assay. The settings on record: 30 pM R1881, 9 days, CTG. Type of experiment: cell-based. The method, boiled down:
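VCaP cells in phenol red-free DMEM/5% CSS, pre-incubated 72 h, then stimulated with R1881 (final 30 pM) and treated with 1:5 serial dilutions (final 100 nM to 10 fM) for 9 days at 37 °C. Viability by CellTiter-Glo luminescence; IC50 from 4-parameter logistic fit of RLU vs concentration.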

The test system of another experiment is AR / CBP ternary complex. Description: Ternary complex formation assay (sandwich ELISA, AR capture / CBP detection) in VCaP cell lysates. Type of experiment: cell-based. The following applies: 1.5 hours treatment, sandwich ELISA (AR capture, CBP or p300 detection). The method, boiled down: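 VCaP cells (50K/well, 5% charcoal-stripped FBS, ≥3 days) treated with bifunctional compound for 1.5 h, then lysed 30 min at 4 °C. AR captured on anti-AR (AR 441) plates; bound CBP or p300 detected by rabbit mAb plus HRP secondary. QuantaRed chemifluorescence read at ex 570/em 585, immediately and at 5 and 15 min.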

As to `COc1cc(OC2C(C)(C)C(NC(=O)c3ccc(N4CCC(CN5CCC(n6nc(-c7cccc8cc(-c9cnn(C)c9)ncc78)c7c6CCN(C(C)=O)C7)CC5)CC4)cc3)C2(C)C)ccc1C#N` (stereo not drawn) [Compound 253, 4-[4-[[4-[5-acetyl-3-[3-(1-methylpyrazol-4-yl)-8-isoquinolyl]-6,7-dihydro-4H-pyrazolo[4,3-c]pyridin-1-yl]-1-piperidyl]methyl]-1-piperidyl]-N-[3-(4-cyano-3-methoxy-phenoxy)-2,2,4,4-tetramethyl-cyclobutyl]benzamide], the IC50 (in general, the concentration that gives 50% inhibition) in the experiment on VCaP cells was at most 0.1 nM. Besides, the EC50 (in general, the concentration that produces a half-maximal response) in the experiment on AR / CBP ternary complex is under 1 nM.

As for `C[C@@H]1CC(=O)Nc2cccc(-c3ccc4c(c3)c(-c3cnn(C)c3)nn4CCCN3CCN(c4ncc(C(=O)NC5C(C)(C)C(Oc6ccc(C#N)c(Cl)c6)C5(C)C)cn4)CC3)c2N1` (stereo partly drawn) [Compound 55, N-[3-(3-chloro-4-cyano-phenoxy)-2,2,4,4-tetramethyl-cyclobutyl]-2-[4-[3-[5-[(4R)-4-methyl-2-oxo-1,3,4,5-tetrahydro-1,5-benzodiazepin-6-yl]-3-(1-methylpyrazol-4-yl)indazol-1-yl]propyl]piperazin-1-yl]pyrimidine-5-carboxamide], the half-inhibitory concentration (IC50) in the experiment with VCaP cells was over 100 nM. This compound also showed an EC50 with AR / CBP ternary complex of over 100 nM.

In the experiment with VCaP cells, `CC(=O)N1CCc2c(c(N3CCCc4cc(-c5cnn(C)c5)c(C(F)F)cc43)nn2C2CCN(C(=O)C3CCN(c4ccc(C(=O)NC5C(C)(C)C(Oc6ccc(C#N)c(Cl)c6)C5(C)C)nn4)CC3)CC2)C1` (stereo not drawn) [Compound 114, 6-[4-[4-[5-acetyl-3-[7-(difluoromethyl)-6-(1-methylpyrazol-4-yl)-3,4-dihydro-2H-quinolin-1-yl]-6,7-dihydro-4H-pyrazolo[4,3-c]pyridin-1-yl]piperidine-1-carbonyl]-1-piperidyl]-N-[3-(3-chloro-4-cyano-phenoxy)-2,2,4,4-tetramethyl-cyclobutyl]pyridazine-3-carboxamide] returned a concentration for half-maximal inhibition (IC50) of at most 0.1 nM. The compound further showed an EC50 in the experiment on AR / CBP ternary complex of under 1 nM.

In the case of `CC(=O)N1CCc2c(c(N3CCCc4cc(-c5cnn(C)c5)c(C(F)F)cc43)nn2C2CCN(CCOC3CCN(c4ncc(C(=O)NC5C(C)(C)C(Oc6ccc(C#N)c(Cl)c6)C5(C)C)cn4)CC3)CC2)C1` (stereo not drawn) [Compound 170, 2-[4-[2-[4-[5-acetyl-3-[7-(difluoromethyl)-6-(1-methylpyrazol-4-yl)-3,4-dihydro-2H-quinolin-1-yl]-6,7-dihydro-4H-pyrazolo[4,3-c]pyridin-1-yl]-1-piperidyl]ethoxy]-1-piperidyl]-N-[3-(3-chloro-4-cyano-phenoxy)-2,2,4,4-tetramethyl-cyclobutyl]pyrimidine-5-carboxamide], in the experiment on VCaP cells, the IC50 was in the range of 0.1 to 1 nM. Moreover, in the experiment with AR / CBP ternary complex, the EC50 was under 1 nM.

As for `COc1cc(OC2C(C)(C)C(NC(=O)c3ccc(N4CC[C@H](N5CCC(n6nc(N7CCCc8cc(-c9cnn(C)c9)c(C(F)F)cc87)c7c6CCN(C(C)=O)C7)CC5)C4)cc3)C2(C)C)ccc1C#N` (stereo partly drawn) [Compound 336, 4-[(3S)-3-[4-[5-acetyl-3-[7-(difluoromethyl)-6-(1-methylpyrazol-4-yl)-3,4-dihydro-2H-quinolin-1-yl]-6,7-dihydro-4H-pyrazolo[4,3-c]pyridin-1-yl]-1-piperidyl]pyrrolidin-1-yl]-N-[3-(4-cyano-3-methoxy-phenoxy)-2,2,4,4-tetramethyl-cyclobutyl]benzamide], the IC50 in the experiment with VCaP cells fell in the range of 1 to 100 nM. For the same compound, the EC50 in the experiment on AR / CBP ternary complex is under 1 nM.

Compound `CC(=O)N1CCc2c(c(N3CCCc4cc(-c5cnn(C)c5)c(C(F)F)cc43)nn2CCCOc2ncc(C(=O)NC3C(C)(C)C(Oc4ccc(C#N)c(Cl)c4)C3(C)C)cn2)C1` (stereo not drawn) [Compound 43, 2-[3-[5-acetyl-3-[7-(difluoromethyl)-6-(1-methylpyrazol-4-yl)-3,4-dihydro-2H-quinolin-1-yl]-6,7-dihydro-4H-pyrazolo[4,3-c]pyridin-1-yl]propoxy]-N-[3-(3-chloro-4-cyano-phenoxy)-2,2,4,4-tetramethyl-cyclobutyl]pyrimidine-5-carboxamide] registered an IC50 in the experiment with VCaP cells of over 100 nM. The same compound gave an EC50 in the experiment on AR / CBP ternary complex of over 100 nM.

In the experiment on VCaP cells, `CC(=O)N1CCc2c(c(N3CCCc4cc(-c5cnn(C)c5)c(C(F)F)cc43)nn2C2CCN(C3CCC(C#Cc4ncc(C(=O)NC5C(C)(C)C(Oc6ccc(C#N)c(Cl)c6)C5(C)C)cn4)CC3)CC2)C1` (stereo not drawn) [Compound 293, 2-[2-[4-[4-[5-acetyl-3-[7-(difluoromethyl)-6-(1-methylpyrazol-4-yl)-3,4-dihydro-2H-quinolin-1-yl]-6,7-dihydro-4H-pyrazolo[4,3-c]pyridin-1-yl]-1-piperidyl]cyclohexyl]ethynyl]-N-[3-(3-chloro-4-cyano-phenoxy)-2,2,4,4-tetramethyl-cyclobutyl]pyrimidine-5-carboxamide] yielded an IC50 of 0.1 to 1 nM. The EC50 with AR / CBP ternary complex is under 1 nM.

Regarding `CC(=O)N1CCc2c(c(N3CCCc4cc(-c5cnn(C)c5)c(C(F)F)cc43)nn2C2CCN(C[C@H]3CCN(c4ncc(C(=O)NC5C(C)(C)C(Oc6ccc(C#N)c(Cl)c6)C5(C)C)cn4)C[C@H]3C)CC2)C1` (stereo partly drawn) [Compound 364], in the experiment on VCaP cells, the IC50 was at most 0.1 nM. This compound also gave an EC50 in the experiment on AR / CBP ternary complex of under 1 nM.

Compound `COc1cc(OCC(C)(C)[C@H](NC(=O)c2ccc(N3CCN(CC4CCC(n5nc(N6CCCc7cc(-c8cnn(C)c8)c(C(F)F)cc76)c6c5CCN(C(C)=O)C6)CC4)CC3)cc2)C(C)C)ccc1C#N` (stereo partly drawn) [Compound 317, 4-[4-[[4-[5-acetyl-3-[7-(difluoromethyl)-6-(1-methylpyrazol-4-yl)-3,4-dihydro-2H-quinolin-1-yl]-6,7-dihydro-4H-pyrazolo[4,3-c]pyridin-1-yl]cyclohexyl]methyl]piperazin-1-yl]-N-[(1R)-3-(4-cyano-3-methoxy-phenoxy)-1-isopropyl-2,2-dimethyl-propyl]benzamide] gave an IC50 with VCaP cells of at most 0.1 nM. Moreover, the EC50 in the experiment with AR / CBP ternary complex is under 1 nM.

In the experiment on VCaP cells, `CC(=O)N1CCc2c(c(-c3cccc4cc(-c5cnn(CCC6CC7(C6)CN(c6ncc(C(=O)NC8C(C)(C)C(Oc9ccc(C#N)c(Cl)c9)C8(C)C)cn6)C7)c5)ncc34)nn2C2CCOCC2)C1` (stereo not drawn) [Compound 225, 2-[6-[2-[4-[8-(5-acetyl-1-tetrahydropyran-4-yl-6,7-dihydro-4H-pyrazolo[4,3-c]pyridin-3-yl)-3-isoquinolyl]pyrazol-1-yl]ethyl]-2-azaspiro[3.3]heptan-2-yl]-N-[3-(3-chloro-4-cyano-phenoxy)-2,2,4,4-tetramethyl-cyclobutyl]pyrimidine-5-carboxamide] gave an IC50 of 0.1 to 1 nM. Also, the EC50 in the experiment on AR / CBP ternary complex is under 1 nM.

For `Cn1c(=O)n(C)c2cc(N3CCCc4cc(-c5ccc(CCC6CCN(c7ncc(C(=O)NC8C(C)(C)C(Oc9ccc(C#N)c(Cl)c9)C8(C)C)cn7)CC6)nc5)ncc43)ccc21` (stereo not drawn) [Compound 234, N-[3-(3-chloro-4-cyano-phenoxy)-2,2,4,4-tetramethyl-cyclobutyl]-2-[4-[2-[5-[1-(1,3-dimethyl-2-oxo-benzimidazol-5-yl)-3,4-dihydro-2H-1,7-naphthyridin-6-yl]-2-pyridyl]ethyl]-1-piperidyl]pyrimidine-5-carboxamide], the IC50 in the experiment with VCaP cells is over 100 nM. In the experiment with AR / CBP ternary complex, the half-maximal effective concentration (EC50) lay in the range of 1 to 10 nM.

On to `CC(=O)N1CCc2c(c(-c3cccc4cc(-c5cnn(CC6CC7(C6)CN(c6ncc(C(=O)NC8C(C)(C)C(Oc9ccc(C#N)c(Cl)c9)C8(C)C)cn6)C7)c5)ncc34)nn2C)C1` (stereo not drawn) [Compound 224, 2-[6-[[4-[8-(5-acetyl-1-methyl-6,7-dihydro-4H-pyrazolo[4,3-c]pyridin-3-yl)-3-isoquinolyl]pyrazol-1-yl]methyl]-2-azaspiro[3.3]heptan-2-yl]-N-[3-(3-chloro-4-cyano-phenoxy)-2,2,4,4-tetramethyl-cyclobutyl]pyrimidine-5-carboxamide], for which, in the experiment on VCaP cells, the IC50 was in the range of 0.1 to 1 nM. The compound also registered an EC50 with AR / CBP ternary complex of under 1 nM.
